A short description of data set [1]: plasma protein binding in bovine plasma (ultrafiltration). As to conditions: bovine plasma from two cows, 2000 x g.
The conditions of data set [2]: cited from earlier work.
Data set [3] in a line: bovine blood in vitro hemodialysis model: hemofilter clearance. Format: in vitro ADME. Particulars: for Cl, in vitro clearance rate: ultrafiltration 0 ml/min, 37°C, corrected by hematocrit. The procedure: Hemodialysis was simulated using a Fresenius 4008H dialysis machine. After priming of the extracorporeal circuit including the dialysis membrane with 0.9% saline solution, a reservoir bag containing 2 L of 37°C warm heparinized bovine blood (provided in cooperation with the University of Veterinary Medicine Vienna after seeking authorization by the institutional and governmental ethics committee, (ZI.04/04/972,013, GZ: 68.205/0240-WF/V/3b/2016) was connected to the circuit. The blood was kept at 37°C throughout the experiment. It was mixed with 2,000 IU of low molecular weight heparin directly during the blood draw as well as during the experiment itself with a rate of 500 IU per hour. After circuit connection, the investigated drug was added to the reservoir in order to mimic plasma levels previously described in trials ([Lanese et al., 1989]; [Thalhammer et al., 1997]; [Amin et al., 1999]). […] After priming the system with blood, it was allowed to run for 30 s to allow equilibration of blood hematocrit throughout the extracorporeal circuit before the baseline sample was drawn. Due to the reduced volume compared to in vivo and the comparably large hemofilter membrane area, a considerably faster drug concentration decline was expected. Thus, pre filter, post filter and ultrafiltrate samples were collected at the end of minutes 1, 5, 10, 15, 20, 30, 40 and 60 of the run. All samples were plasma separated by centrifugation at 2000 ×vg for 7 min and the supernatant stored at −80°C for analysis.
An actual blood flow rate of 300 ml/min and a dialysate flow rate of 500 ml/min were kept as standard flow rates. Depending on previous literature, single drugs were run at different flow rates to allow external validation of the model. Ultrafiltration (corresponding to negative fluid balance/water removal during hemodialysis) was kept at 0 ml/min. […] Hemodialysation and hemofiltration experiments were performed with Baxter Gambro CAHP 170 diacetate devices, Nipro Sureflux 17UX and 21UX triacetate membranes as well as Fresenius Hemoflow F80s and FX 80 polysulphone membranes.
The measured drug plasma concentrations were analyzed to calculate the area under the curve, hemofilter clearance and the drug saturation coefficient. As removal within the hemofilter is expected to be too fast for equilibration of drugs out of the erythrocyte compartment and drug concentrations were measured in the plasma, all clearance values were calculated with a hematocrit corrected formula, in which Hc is the blood hematocrit in percent divided by 100, BFR the actual blood flow rate, Cpre the drug concentration measured before the blood enters the filter and Cpost the drug concentration measured after the filter. Additionally the formula allows for correction of blood concentration by ultrafiltration (UFR). (1−Hc)×BFR×Cpre−(Cpost(BFR−UFR))/BFR/[…]
Hematocrit corrected and not corrected clearance, total “body” clearance, volume of distribution, area under curve, elimination coefficient and half-life were evaluated for their correspondence to previously published in vivo values. Whenever previous publications declared the method of clearance calculation, the same formula was used. […] An empirical fitting of the in vitro PK curves and available in vivo PK curves was performed to gain an insight into the time relation between in vitro and in vivo.
More recent historic data on intradialytic gentamicin clearance only exists for the Baxter CAHP-210 membrane ([Sowinski et al., 2008]) and the Fresenius F80s ([Amin et al., 1999]) which are both not available anymore. Baxter however was kind enough to supply us with several CAHP-170 and […] models. To extrapolate assumed clearance of a CAHP-210, we compared clearance gains between a Nipro Sureflux 17UX and a Sureflux 21UX membrane.

The conditions of data set [4]: cited from earlier work. The source says:
TABLE 2 Comparison of in vitro and in vivo clearance values.
This is another data set of the same source.

For data set [5] the following is noted: earlier publications, slightly higher bound fraction, (±3.0); ref PMC, 1972; cited from earlier work.
Where [6] appears, read: membrane Fx80 (Fresenius high flux polysulphone, 1.8 m^2), BFR 300 ml/min, DFR 500 ml/min, bovine blood, mean, N = 12.

The source of these data is publication PMC8264131 (Frontiers in Pharmacology, 2021).

Read-outs that look alike come from different tables or passages of the source.

With `C[C@@H](O)[C@H]1C(=O)N2C(C(=O)O)=C(S[C@@H]3CN[C@H](CNS(N)(=O)=O)C3)[C@H](C)[C@H]12` [Doripenem, doripenem], the “plasma protein binding, Bovine” value in data set [1] (Centrisart I devices, 20 min, room temperature, HPLC) worked out at 9.7%. In addition, the “plasma protein binding, Human” value in data set [2] is 8.0%. Besides, the “Cl, in vitro clearance rate” value in data set [3] (setting [6]) was found to be 141.25 mL/min; in data set [3] (membrane SF21UX (Nipro cellulose triacetate, 2.1 m^2), BFR 300 ml/min, DFR 500 ml/min, bovine blood, mean, N = 12), 155.76 mL/min. Besides, in data set [4] (human, in vivo), the “Clin vivo, clearance as described in referenced publication” value was 148.61 mL/min.
For the molecule `CNC(C)C1CCC(N)C(OC2C(N)CC(N)C(OC3OCC(C)(O)C(NC)C3O)C2O)O1` (centres unmarked) [Gentamicin, gentamicin], the “Cl, in vitro clearance rate” value in data set [3] (membrane CAHP-170 (Baxter cellulose diacetate, 1.7 m^2), BFR 400 ml/min, DFR 800 ml/min, bovine blood, mean, N = 16) was found to be 90.12 mL/min; in data set [3] (membrane F80s (Fresenius high flux polysulphone, 1.8 m^2), BFR 300 ml/min, DFR 500 ml/min, bovine blood, mean, N = 12), 122.37 mL/min; in data set [3] (membrane F80s (Fresenius high flux polysulphone, 1.8 m^2), BFR 400 ml/min, DFR 800 ml/min, bovine blood, mean, N = 12), 137.62 mL/min; in data set [3] (setting [6]) it was 142.13 mL/min; in data set [3] (membrane Fx80 (Fresenius high flux polysulphone, 1.8 m^2), BFR 400 ml/min, DFR 800 ml/min, bovine blood, mean, N = 12), 187.90 mL/min; in data set [3] (membrane SF17UX (Nipro cellulose triacetate, 1.7 m^2), BFR 400 ml/min, DFR 800 ml/min, bovine blood, mean, N = 12), 160.75 mL/min. Also, the “Cl, in vitro clearance rate” value worked out at 131.52 mL/min in data set [3] (membrane SF21E (Nipro Sureflux-21E medium-flux cellulose triacetate, 2.1 m^2), BFR 400 ml/min, DFR 800 ml/min, 2 L heparinized bovine blood, mean, N = 12) and 178.25 mL/min in data set [3] (membrane SF21UX (Nipro cellulose triacetate, 2.1 m^2), BFR 400 ml/min, DFR 800 ml/min, bovine blood, mean, N = 17).
In the case of `CN[C@H](CC(C)C)C(=O)N[C@H]1C(=O)N[C@@H](CC(N)=O)C(=O)N[C@H]2C(=O)N[C@H]3C(=O)N[C@H](C(=O)N[C@H](C(=O)O)c4cc(O)cc(O)c4-c4cc3ccc4O)[C@H](O)c3ccc(c(Cl)c3)Oc3cc2cc(c3O[C@@H]2O[C@H](CO)[C@@H](O)[C@H](O)[C@H]2O[C@H]2C[C@](C)(N)[C@H](O)[C@H](C)O2)Oc2ccc(cc2Cl)[C@H]1O` [Vancomycin, vancomycin], in data set [1] (Millipore Centrefree device, 1 ml aliquot, 10 min, Cobas VANC3 assay), the “plasma protein binding, Bovine” value came to 43.6%. In addition, the “plasma protein binding, Human” value in data set [2] (previously published value, ref Butterfield et al. (2011)) is 41.5%. Besides, the “Clin vivo, clearance as described in referenced publication” value in data set [4] (hemodialysis patients, membrane F60s, ref Lanese et al. (1989)) was 73.0 mL/min; in data set [4] (hemodialysis patients, membrane F80s, ref Lanese et al. (1989)), 85.2 mL/min. In addition, in data set [5], the bound fraction is recorded as 54.8%.
Take teicoplanin: the “Cl, in vitro clearance rate” value in data set [3] (membrane F60s (Fresenius polysulphone), BFR 250 ml/min, DFR 500 ml/min, bovine blood, mean, N = 16) was 25.50 mL/min; in data set [3] (membrane Fx80 (Fresenius polysulphone), BFR 250 ml/min, DFR 500 ml/min, bovine blood, mean, N = 12), 43.49 mL/min. Also, in data set [3] (membrane F60s, bovine blood in vitro hemodialysis, non hematocrit corrected, mean), the “Clin vitro, non hematocrit corrected clearance” value was 38.95 mL/min. Moreover, the “clearance, simulation with Sureflux SF 21E triacetate dialyzer” value in data set [3] (membrane Sureflux SF 21E triacetate, bovine blood in vitro hemodialysis, flow rates not given) was 17.6 mL/min. Also, in data set [4] (human, in vivo), the “Clin vivo, non-hematocrit corrected clearance” value was 39.70 mL/min.
